Source: ChEMBL document CHEMBL3217471, “Prenyltransferase Inhibitors: Treating Human Ailments from Cancer to Parasitic Infections” (Medchemcomm, 2013)

Key:
[1] = biological target: T1, Protein farnesyltransferase (Homo sapiens, UniProt P49354+P49356); test: Inhibition of human recombinant FTase using [3H]farnesyldiphosphate; format: protein-complex assay
[2] = Inhibition of rat RabGGTase using [3H]GGPP by scintillation counting
[3] = biological target: Geranylgeranyl transferase type I (Homo sapiens, UniProt P49354+P53609); test: Inhibition of human GGTase1 in human Burkitt lymphoma (Daudi) cell supernatant using [3H]geranylgeranyl
Homo sapiens = species on record: Homo sapiens; test: Selectivity ratio of IC50 for human GGTase 1 in human Burkitt lymphoma (Daudi) cell supernatant to IC50 for human recombinant FTase
[4] = Inhibition of human RabGGTase using [3H]GGPP by scintillation counting
[5] = biological target: T1, Protein farnesyltransferase; test: Binding affinity to FTase (unknown origin)

Row | Structure (SMILES) | IC50 [1] | IC50 [3] | also measured
1 | Cn1cncc1CN(Cc1cccc(C#N)c1)c1ccc(C#N)c(-c2cccc3ccccc23)c1 | 0.39 nM |  | 
2 | O=C(O)C(Cl)(Cc1cccnc1)P(=O)(O)O (configuration not stated) |  |  | IC50 [2]: 16400 nM
3 | N#Cc1ccc2c(c1)CN(S(=O)(=O)c1cccs1)[C@@H](Cc1ccccc1)CN2Cc1ncc[nH]1 | 1.35 nM | > 1000 nM | 
4 | Cn1cncc1[C@@](N)(c1ccc(Cl)cc1)c1ccc2c(c1)c(-c1cccc(Cl)c1)cc(=O)n2C [TIPIFARNIB] |  | > 50000 nM | 
5 | N#Cc1ccc2cc1Oc1ccc3c(c1)[C@@H](CCC3)N1CC[C@@H](NCc3cncn3C2)C1=O [(1R,5R)-30-OXO-19-OXA-2,6,10,12-TETRAAZAHEXACYCLO[18.6.2.1^{2,5}.1^{14,18}.0^{8,12}.0^{23,27}]TRIACONTA-8,10,14(29),15,17,20(28),21,23(27)-OCTAENE-17-CARBONITRILE (STRUCTURAL MIX)] | 0.02 nM |  | 
6 | CC(C)[C@@H](CO[C@@H](Cc1ccccc1)C(=O)N[C@@H](CCS(C)(=O)=O)C(=O)O)NC[C@@H](N)CS | 1.8 nM | 50 nM | 
7 | O=C(O)C(O)(Cc1cnc2ccccn12)P(=O)(O)O (single isomer, unassigned; (+)) [(2-HYDROXY-3-IMIDAZO[1,2-A]PYRIDIN-3-YL-2-PHOSPHONOPROPIONIC ACID (ENANTIONMERS)] |  |  | IC50 [2]: 1300 nM
8 | Cc1ccccc1S(=O)(=O)N1[C@H](C(C)(C)C)C[C@@H](C(=O)O)[C@@H]1c1ccc(Cl)cc1 | > 50000 nM | 466 nM | Ratio IC50 (Homo sapiens): 100
9 | CC(C)C[C@H](NC(=O)c1ccc(NC[C@@H](N)CS)cc1-c1ccccc1)C(=O)O | 25 nM | 5 nM | 
10 | O=C(O)C(O)(Cc1cccnc1)P(=O)(O)O (configuration not stated) |  |  | IC50 [2]: 24100 nM; IC50 [4]: 600000 nM
11 | CC(C)=CCC/C(C)=C/CC/C(C)=C/CO[P@@](=O)(O)OP(=O)(O)O [FARNESYL DIPHOSPHATE] |  |  | Kd [5]: 2 nM
12 | NC(=O)N1CCC(CC(=O)N2CCC([C@H]3c4ncc(Br)cc4CCc4cc(Cl)cc(Br)c43)CC2)CC1 [LONAFARNIB] |  | > 50000 nM | 

More lines, main results first:

Row | IC50 [1] | IC50 [3] | Structure (SMILES) | also measured
13 | 0.4 nM |  | O=C(NCCCn1ccnc1)[C@H]1CN([C@@H]2c3ccc(Cl)cc3CCc3cc(Br)cnc32)CCN1C(=O)NC1CCCCC1 | 
14 | 6 nM | > 99500 nM | COc1ccc(S(=O)(=O)N2Cc3cc(C#N)ccc3N(Cc3cncn3C)C[C@H]2Cc2ccccc2)cc1 | IC50 [2]: 724 nM
15 |  | 50 nM | CSCC[C@H](NC(=O)c1ccc(NC[C@@H](N)CS)cc1-c1ccccc1)C(=O)O | 
16 | 53000 nM | 9.5 nM | Cc1nc[nH]c1CN1CCN(C(=O)N[C@@H](CC(C)C)C(=O)O)[C@@H](Cc2ccccc2)C1=O [GGTI-2418] | Ratio IC50 (Homo sapiens): > 5000
17 | > 9700 nM | > 99500 nM | COc1ccc(S(=O)(=O)N2Cc3cc(-c4ccc(C#N)o4)ccc3N(Cc3cncn3C)C[C@H]2Cc2ccc(OC(=O)NCc3ccccc3)cc2)cc1 | IC50 [2]: 42 nM
18 | 5600 nM | 21 nM | Cc1ccccc1-c1cc(NCc2c[nH]cn2)ccc1C(=O)N[C@@H](CC(C)C)C(=O)O | Ratio IC50 (Homo sapiens): > 250
